From ChEMBL document CHEMBL5325453, “Isolation and identification of the new baicalin target protein to develop flavonoid structure-based therapeutic agents” (Bioorg Med Chem, 2023)

Tests used:
[1] = target: T1, Glyceraldehyde-3-phosphate dehydrogenase (Homo sapiens, UniProt P04406); assay: Binding affinity to human recombinant GAPDH assessed as change in enthalpy at 298 K incubated for 30 mins by fluorescence quenching assay
Target sequence in this assay (P04406 2-335 limits assumed): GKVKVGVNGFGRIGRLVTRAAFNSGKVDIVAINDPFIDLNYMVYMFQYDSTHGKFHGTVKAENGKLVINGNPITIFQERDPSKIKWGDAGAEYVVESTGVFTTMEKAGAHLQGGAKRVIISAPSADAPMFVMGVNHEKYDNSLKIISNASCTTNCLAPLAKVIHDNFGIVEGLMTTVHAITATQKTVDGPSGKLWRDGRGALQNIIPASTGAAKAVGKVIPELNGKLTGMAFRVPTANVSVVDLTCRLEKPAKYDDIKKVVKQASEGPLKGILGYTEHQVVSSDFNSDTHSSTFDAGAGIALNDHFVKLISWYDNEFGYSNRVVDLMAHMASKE

[2] = target: T1, Glyceraldehyde-3-phosphate dehydrogenase; assay: Binding affinity to human recombinant GAPDH assessed as Stem-Volmer quenching constant at 298 K incubated for 30 mins by fluorescence quenching assay
Target sequence in this assay (P04406 2-335 limits assumed): as above

[3] = target: T1, Glyceraldehyde-3-phosphate dehydrogenase; assay: Inhibition of human recombinant GADPH incubated for 30 mins by absorbance based assay
Target sequence in this assay (P04406 whole entry): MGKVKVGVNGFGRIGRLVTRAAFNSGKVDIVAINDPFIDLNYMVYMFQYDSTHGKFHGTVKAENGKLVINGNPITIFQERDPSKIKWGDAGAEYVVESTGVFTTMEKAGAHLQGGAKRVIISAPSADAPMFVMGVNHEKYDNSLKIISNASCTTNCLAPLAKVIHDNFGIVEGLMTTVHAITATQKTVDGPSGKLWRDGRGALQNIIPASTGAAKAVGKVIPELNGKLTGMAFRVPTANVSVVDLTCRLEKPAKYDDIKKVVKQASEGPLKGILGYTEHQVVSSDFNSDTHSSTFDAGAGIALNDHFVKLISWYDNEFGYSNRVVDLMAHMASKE

[4] = target: T1, Glyceraldehyde-3-phosphate dehydrogenase; assay: Binding affinity to human recombinant GAPDH assessed as equilibrium binding constant at 310 K incubated for 30 mins by fluorescence quenching assay
Target sequence in this assay (P04406 2-335 limits assumed): as the sequence (P04406 2-335 limits assumed) above

[5] = target: T1, Glyceraldehyde-3-phosphate dehydrogenase; assay: Binding affinity to human recombinant GAPDH incubated for 30 mins by fluorescence quenching assay; settings: dose <= 50.0 µM
Target sequence in this assay (P04406 2-335 limits assumed): as above

[6] = target: T1, Glyceraldehyde-3-phosphate dehydrogenase; assay: Binding affinity to human recombinant GAPDH assessed as change in gibbs free energy at 310 K incubated for 30 mins by fluorescence quenching assay
Target sequence in this assay (P04406 2-335 limits assumed): as above

[7] = target: T1, Glyceraldehyde-3-phosphate dehydrogenase; assay: Binding affinity to human recombinant GAPDH assessed as Stem-Volmer quenching constant at 310 K incubated for 30 mins by fluorescence quenching assay
Target sequence in this assay (P04406 2-335 limits assumed): as above

[8] = target: T1, Glyceraldehyde-3-phosphate dehydrogenase; assay: Binding affinity to human recombinant GAPDH assessed as change in gibbs free energy at 298 K incubated for 30 mins by fluorescence quenching assay
[9] = target: T1, Glyceraldehyde-3-phosphate dehydrogenase; assay: Binding affinity to human recombinant GAPDH assessed as change in entropy at 298 K incubated for 30 mins by fluorescence quenching assay
[10] = target: T1, Glyceraldehyde-3-phosphate dehydrogenase; assay: Binding affinity to human recombinant GAPDH assessed as equilibrium binding constant at 298 K incubated for 30 mins by fluorescence quenching assay

deltaH [1] | KSV [2] | IC50 [3] | Kb [4] | Activity [5] | deltaG [6] | KSV [7] | deltaG [8] | deltaS [9] | Kb [10] | Compound
-3.42 kcal/mol | 26.7 µM⁻¹ | 43.9 µM | 341 M⁻¹ | Dose-Dependent Effect | -3.59 kcal/mol | 26.3 µM⁻¹ | -3.59 kcal/mol | 2.38 J/mol/K | 427 M⁻¹ | O=c1cc(-c2ccccc2)oc2cc(O)c(O)c(O)c12 [BAICALEIN]
-19.5 kcal/mol | 27.3 µM⁻¹ | 40.9 µM | 634 M⁻¹ | Dose-Dependent Effect | -3.97 kcal/mol | 17.4 µM⁻¹ | -4.58 kcal/mol | -210 J/mol/K | 2270 M⁻¹ | O=C(O)[C@H]1O[C@@H](Oc2cc3oc(-c4ccccc4)cc(=O)c3c(O)c2O)[C@H](O)[C@@H](O)[C@@H]1O [BAICALIN]
